Experimental data from patent US9205091B2, “Diazeniumdiolated compounds, pharmaceutical compositions, and method of treating cancer” (The United States of America, as represented by the …, priority 2009, dated 2015).

Legend:
H1373 = assay: CellTiter 96 MTT cell proliferation assay (Example 9); assay type: cell-based, human
Experimental: (§1) Cell lines derived from human non-small cell lung cancers are obtained from American Type Culture Collection (ATCC, Manassas, Va.), and are designated by their NCI numbers. Cells are maintained in RPMI 1640 medium (Gibco, Invitrogen, Carlsbad, Calif.), supplemented with 10% fetal calf serum (Gemini Bio-Products, Sacramento, Calif.), 100 U/mL penicillin/streptomycin, and 2 mM glutamine at 37° C. and 5% CO2.
(§2) For proliferation assays cells are seeded at 2×10^4/well in 96-well plates, allowed to adhere for 24 hrs, and then are treated with the drug or DMSO as a control for 48 hours. […] Compounds are prepared as 10 mM stock solution in dimethyl sulfoxide (Sigma, St. Louis, Mo.). Increasing drug concentrations in 10 μL of phosphate-buffered saline (PBS) are added to 100 μL of the culture medium and incubated at 37° C. for 72 h. The CellTiter 96 non-radioactive cell proliferation assay (MTT assay, Promega, Madison, Wis.), is performed according to the manufacturer's protocol. Each compound concentration is represented in six repeats, and the screening is performed as at least two independent experiments. IC50 values are calculated using Sigma Plot software (Systat Software).

H1703 = assay: as above; assay type: cell-based, human
Experimental: as §1, §2

H441 = assay: as above; assay type: cell-based, human
Experimental: as §1, §2

H2122 = assay: as above; assay type: cell-based, human
Experimental: as §1, §2

H1944 = assay: as above; assay type: cell-based, human
Experimental: as §1, §2

H1703 cells = assay: H1703 xenograft in athymic NCr-nu/nu mice, tumor weights (Example 10); assay type: in vivo; settings: 8 micromols/kg i.v., three times a week for three weeks
Experimental: H1703 cells are harvested at 80% confluence, washed with PBS, and suspended in PBS. The cells are injected at 5×10^6 s.c. into a flank of 7-week-old female athymic NCr-nu/nu mice (Charles River). […] Animals are treated three times a week for three weeks with i.v. tail vein injections of either vehicle (2.25% P-123 in PBS) or 1 or 2 (6 micromols/kg in the vehicle) or 6 (8 micromols/kg). Body weights are taken before each drug injection. Animals are sacrificed two hours after the last drug injection and the tumors are excised and weighed. There are 13-15 mice/group at termination. The non-parametric Mann-Whitney test is utilized for statistical comparisons of tumor weights.

[1] = Rate of reaction with 4 mM glutathione (stability study, HPLC); assay type: physicochemical; settings: for t½ (min) Mean (SE): 4 mM glutathione (GSH), aqueous pH 7.4 phosphate buffered saline, 37° C.; for half-life upon treatment with glutathione (GSH): in comparison with that of JS-K
Experimental: 490 μL of 2.25% Pluronic P123 in PBS is aliquoted into glass HPLC vials and maintained at 50° C. To this solution, 10 μL of 50 mM of compounds 6, 7, 9, and 11 in DMSO is added and maintained at 50° C. for 10 min. A glutathione stock solution (40 mM) is prepared in 0.1 M phosphate buffer pH 7.4. To 800 μL of 0.1 M phosphate buffer in a glass HPLC vial, 100 μL of glutathione stock solution and 100 μL of formulated prodrug are added. The disappearance of the compound is monitored using an Agilent 1100 series HPLC fitted with a C-18 reverse phase column (Phenomenex Luna 250×4.60 mm) operating at 300 nm and run isocratically with acetonitrile:water (75:25).

[2] = system: lung adenocarcinoma cells (cell line H441); assay: Proliferation of lung adenocarcinoma cells, JS-59-4 with olaparib (FIG. 2); assay type: cell-based, human; settings: combination with the PARP inhibitor olaparib, in comparison to JS-59-4 alone
Experimental: FIG. 2 is a bar graph showing a synergistic effect of the administration of JS-59-4 with the PARP inhibitor olaparib in the inhibition of proliferation of lung adenocarcinoma cells (cell line H441). The white bar represents the control (i.e., no treatment). The light gray bar represents the administration of JS-59-4 alone (0.75 μM). The dark gray bar represents the administration of JS-59-4 alone (1 μM). The diagonally hatched bar represents the administration of olaparib alone (5 μM). The cross hatched bar represents the administration of olaparib alone (10 μM). The light gray diagonally gray bar represents the co-administration of JS-59-4 (0.75 μM) and olaparib (5 μM). The dark gray diagonally hatched bar represents the co-administration of JS-59-4 (1 μM) and olaparib (5 μM). The light gray cross hatched gray bar represents the co-administration of JS-59-4 (0.75 μM) and olaparib (10 μM). The dark gray cross hatched bar represents the co-administration of JS-59-4 (1 μM) and olaparib (10 μM).

SAPK/JNK and p38 = assay: Tiron pre-treatment before JS-36-25, stress kinase phosphorylation; assay type: cell-based, human; settings: 10 mM Tiron 1 hour, then 30 minutes 1 μM JS-36-25
Experimental: Immunoblotting: For protein immunoblotting the cells are harvested in lysis buffer (25 mM Hepes buffer containing 150 mM NaCl, 10 mM MgCl2, 1% Nonidet P40, 0.25% sodium deoxycholate, 10% glycerol, 2.5 mM EDTA, supplemented with Complete proteinase inhibitors cocktail (Behringer). Cell extracts are resolved by SDS-polyacrylamide gel electrophoresis (4-12% Bis-Tris gels or 3-8% Tris-acetate gels, Invitrogen Life Technologies, Carlsbad, Calif.) then immunoblotted to PVDF membrane (Invitrogen). Antibodies to phospho-ATM, Phospho-ATR, cleaved caspases 3 and 7, phospho-SAPK/JNK and SAPK/JNK, phospho-ATF2, phospho-p38 and p38, phospho-c-jun and c-jun, and PARP are purchased from Cell Signaling Technology (Danvers, Mass.). Anti-ATF3 polyclonal antibodies are from Santa Cruz Biotechnology (Santa Cruz, Calif.). […] The cells are pre-treated for 1 hour with 10 mM Tiron, followed by 30 minutes incubation with 1 μM of JS-36-25. In the Tiron-treated cells phosphorylation of both SAPK/JNK and p38 by JS-36-25 is diminished in comparison with JS-36-25-only treated cells (FIG. 3C).

H1703 cell line = assay: Tiron protection against JS-K toxicity; assay type: cell-based, human

SMILES | IC50 (H1373) [µM] | IC50 (H1703) [µM] | IC50 (H441) [µM] | IC50 (H2122) [µM] | IC50 (H1944) [µM] | H1703 tumor growth in vivo (H1703 cells) | t½ (min) Mean (SE) [1] | antiproliferative activity of the combination [2] | half-life upon treatment with glutathione (GSH) [1] | SAPK/JNK and p38 phosphorylation by JS-36-25 (SAPK/JNK and p38) | effect on JS-K toxicity (H1703 cell line)
CCOC(=O)N1CCN(/[N+]([O-])=N/Oc2cc(C)c([N+](=O)[O-])cc2[N+](=O)[O-])CC1 [Compound 6, O^2-(2,4-dinitrophenyl-5-methyl) 1-[(4-ethoxycarbonyl)piperazin-1-yl]diazen-1-ium-1,2-diolate] | 1.86 | 0.97 | 1.61 | 7 | > 10 | did not result in reduction | 71.5 (4.3) min |  |  |  | 
CCOC(=O)N1CCCN(/[N+]([O-])=N/Oc2cc(C)c([N+](=O)[O-])cc2[N+](=O)[O-])CC1 [Compound 7, O^2-(2,4-dinitrophenyl-5-methyl) 1-[(4-ethoxycarbonyl)homopiperazin-1-yl]diazen-1-ium-1,2-diolate] | 3 | 1.66 | 2.02 | 10 | > 10 |  | 25.7 (1.0) min |  |  |  | 
CCOC(=O)N1CCN(/[N+]([O-])=N/Oc2cc(OC)c([N+](=O)[O-])cc2[N+](=O)[O-])CC1 [Compound 9, O^2-(2,4-dinitrophenyl-5-methoxy) 1-[(4-ethoxycarbonyl)piperazin-1-yl]diazen-1-ium-1,2-diolate] | 2.1 | 1.57 | 2.5 | 5.78 | > 10 |  | 38.6 (2.8) min |  |  |  | 
CCOC(=O)N1CCCN(/[N+]([O-])=N/Oc2cc(OC)c([N+](=O)[O-])cc2[N+](=O)[O-])CC1 [Compound 11, O^2-(2,4-dinitrophenyl-5-methoxy) 1-[(4-ethoxycarbonyl)homopiperazin-1-yl]diazen-1-ium-1,2-diolate] | 3.08 | 1.82 | 3.15 | 10 | > 10 |  | 59.6 (4.2) min |  |  |  | 
CCOC(=O)N1CCN(/[N+]([O-])=N/Oc2ccc([N+](=O)[O-])cc2C#N)CC1 [JS-59-4] |  |  |  |  |  |  |  | significantly enhanced antiproliferative activity | prolonged half-life |  | 
CCOC(=O)N1CCN(/[N+]([O-])=N/Oc2ccc(C#N)cc2[N+](=O)[O-])CC1 [JS-59-131] |  |  |  |  |  |  |  |  | prolonged half-life |  | 
O=S(=O)(O)c1cc(O)c(O)c(S(=O)(=O)O)c1 [Tiron] |  |  |  |  |  |  |  |  |  | significantly reduces | protective effect
